Reference: ChEMBL document CHEMBL5331070, “Design, synthesis and evaluation of N3-substituted quinazolinone derivatives as potential Bloom's Syndrome protein (BLM) helicase inhibitor for sensitization treatment of colorectal cancer” (Eur J Med Chem, 2023)
Calls of active or inactive are those of the source. No cut-off for these calls is given here.

Experiments:
[1] = target: T1, RecQ-like DNA helicase BLM (Homo sapiens, UniProt P54132); assay: Inhibition of His-tagged BLM (unknown origin) expressed in Escherichia coli BL21 (DE3) using 5'-biotin-labeled duplex forked-DNA as substrate incubated for 10 mins followed by substrate addition measured after 30 mins in presence of ATP by electrophoretic mobility shift assay
[2] = target: T1, RecQ-like DNA helicase BLM; assay: Displacement of thiazole orange from His-tagged BLM (unknown origin) expressed in Escherichia coli BL21 (DE3) assessed as decrease in fluorescence intensity by fluorescence based analysis
[3] = target: T1, RecQ-like DNA helicase BLM; assay: Displacement of thiazole orange from His-tagged BLM (unknown origin) expressed in Escherichia coli BL21 (DE3) assessed as decrease in fluorescence intensity at 10 uM by fluorescence based analysis
[4] = tested on: SW480; assay: Cytotoxicity against human SW480 cells assessed as inhibition of cell growth measured after 48 hrs by MTT assay; format: functional, cell-based; conditions: SW480, 48 h
[5] = Cytotoxicity against human NCM460 cells assessed as inhibition of cell growth measured after 48 hrs by MTT assay; format: toxicity, cell-based
[6] = tested on: RKO; assay: Cytotoxicity against human RKO cells assessed as inhibition of cell growth measured after 48 hrs by MTT assay; format: functional, cell-based
[7] = target: T1, RecQ-like DNA helicase BLM; assay: Inhibition of BLM (unknown origin) assessed as ATP hydrolysis using 5'-biotin-labeled duplex forked-DNA as substrate incubated for 10 mins in presence of ATP by luciferase assay
[8] = tested on: HCT-116; assay: Cytotoxicity against human HCT-116 cells assessed as inhibition of cell growth measured after 48 hrs by MTT assay; format: functional, cell-based; conditions: HCT-116, 48 h
[9] = Disruption of BLM/5'-biotin-labeled duplex forked-DNA interaction incubated for 30 mins by ELISA assay

T1 sequence (P54132 whole entry): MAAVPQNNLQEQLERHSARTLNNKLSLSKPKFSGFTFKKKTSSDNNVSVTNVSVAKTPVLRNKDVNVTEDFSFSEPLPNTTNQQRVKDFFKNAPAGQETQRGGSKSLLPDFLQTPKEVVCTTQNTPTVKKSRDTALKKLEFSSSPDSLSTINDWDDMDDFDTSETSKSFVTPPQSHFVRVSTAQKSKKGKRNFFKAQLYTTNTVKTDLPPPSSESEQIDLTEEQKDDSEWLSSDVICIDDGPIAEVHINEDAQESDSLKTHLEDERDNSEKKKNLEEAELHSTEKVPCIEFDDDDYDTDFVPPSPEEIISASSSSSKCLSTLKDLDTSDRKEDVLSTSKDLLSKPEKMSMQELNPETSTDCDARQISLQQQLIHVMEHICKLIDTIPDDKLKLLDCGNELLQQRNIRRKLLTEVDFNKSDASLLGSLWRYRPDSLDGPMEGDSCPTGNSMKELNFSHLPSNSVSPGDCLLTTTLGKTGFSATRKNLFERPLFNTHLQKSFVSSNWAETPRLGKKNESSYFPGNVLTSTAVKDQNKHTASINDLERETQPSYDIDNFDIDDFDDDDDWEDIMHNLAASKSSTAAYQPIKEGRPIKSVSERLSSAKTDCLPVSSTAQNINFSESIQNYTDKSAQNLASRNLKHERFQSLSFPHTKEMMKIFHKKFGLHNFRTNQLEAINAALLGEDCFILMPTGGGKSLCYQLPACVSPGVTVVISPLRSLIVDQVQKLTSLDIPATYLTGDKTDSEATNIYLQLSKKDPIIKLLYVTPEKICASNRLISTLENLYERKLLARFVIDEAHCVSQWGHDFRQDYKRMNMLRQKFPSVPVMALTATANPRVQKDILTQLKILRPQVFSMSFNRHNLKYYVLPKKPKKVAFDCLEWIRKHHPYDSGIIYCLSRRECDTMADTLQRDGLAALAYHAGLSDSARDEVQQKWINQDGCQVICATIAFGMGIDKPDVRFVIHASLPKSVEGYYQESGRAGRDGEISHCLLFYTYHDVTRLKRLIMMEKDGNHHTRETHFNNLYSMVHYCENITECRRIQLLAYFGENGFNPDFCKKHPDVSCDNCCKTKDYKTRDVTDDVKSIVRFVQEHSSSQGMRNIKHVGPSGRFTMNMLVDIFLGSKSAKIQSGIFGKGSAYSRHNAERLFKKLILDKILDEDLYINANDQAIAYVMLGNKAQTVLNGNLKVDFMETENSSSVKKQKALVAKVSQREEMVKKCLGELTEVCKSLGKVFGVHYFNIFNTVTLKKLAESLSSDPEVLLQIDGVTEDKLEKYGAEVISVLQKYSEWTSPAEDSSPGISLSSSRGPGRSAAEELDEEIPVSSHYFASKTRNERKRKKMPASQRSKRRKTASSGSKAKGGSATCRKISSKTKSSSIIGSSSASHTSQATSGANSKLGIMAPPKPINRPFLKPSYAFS

Row | Structure (SMILES) | IC50 [1] [µM] | IC50 [2] [µM] | Activity [3] | further results
1 | CCN(CC)CCCNc1cc2nc(/C=C/c3ccc(C(C)C)cc3)n(CCC#N)c(=O)c2cc1F | > 32 | > 10 | – | –
2 | CCN(CC)CCCNc1cc2nc(/C=C/c3ccc(C(C)C)cc3)n(CCCOC(C)C)c(=O)c2cc1F | 5.2 | > 10 | – | –
3 | CCN(CC)CCCNc1cc2nc(/C=C/c3ccc(C(C)C)cc3)n(Cc3ccccc3Br)c(=O)c2cc1F | 2.9 | – | inactive | –
4 | CCN(CC)CCCNc1cc2nc(/C=C/c3ccc(C(C)C)cc3)n(Cc3ccccc3)c(=O)c2cc1F | 5.8 | > 10 | – | –
5 | CCN(CC)CCCNc1cc2nc(/C=C/c3ccc(C(C)C)cc3)n(Cc3ccccc3F)c(=O)c2cc1F | 5.2 | – | inactive | –
6 | C=C(C)Cn1c(/C=C/c2ccc(C(C)C)cc2)nc2cc(NCCCN(CC)CC)c(F)cc2c1=O | 8 | – | inactive | –
7 | CCN(CC)CCCNc1cc2nc(/C=C/c3ccc(C(C)C)cc3)n(Cc3ccc(OC)cc3)c(=O)c2cc1F | 5 | – | inactive | –
8 | CCN(CC)CCCNc1cc2nc(/C=C/c3ccc(C(C)C)cc3)n(CCN(C)C)c(=O)c2cc1F | 2.5 | > 10 | – | IC50 [4]: 10.1 µM; IC50 at 48 h [5]: > 25 µM; IC50 [6]: 10.6 µM; IC50 [7]: > 32 µM; IC50 [8]: 3 µM; IC50 [9]: 4.5 µM
9 | CCN(CC)CCCNc1cc2nc(/C=C/c3ccc(C(C)C)cc3)n(CCC(C)C)c(=O)c2cc1F | 9.1 | – | inactive | –
10 | CCN(CC)CCCNc1cc2nc(/C=C/c3ccc(C(C)C)cc3)n(Cc3cccc(Br)c3)c(=O)c2cc1F | 2.3 | – | inactive | IC50 [4]: 1.9 µM; IC50 at 48 h [5]: 15.3 µM; IC50 [6]: 5.7 µM; IC50 [7]: > 32 µM; IC50 [8]: 2.9 µM; IC50 [9]: 9.9 µM
11 | CCCCCn1c(/C=C/c2ccc(C(C)C)cc2)nc2cc(NCCCN(CC)CC)c(F)cc2c1=O | 3.7 | – | inactive | –
12 | CCN(CC)CCCNc1cc2nc(/C=C/c3ccc(C(C)C)cc3)n(CC#N)c(=O)c2cc1F | 4.3 | – | inactive | –
13 | CCN(CC)CCCNc1cc2nc(/C=C/c3ccc(C(C)C)cc3)n(CCc3ccccc3)c(=O)c2cc1F | 4 | > 10 | – | –
